Experimental data: US10689354B2, “Aminoazole derivative” (Teijin Pharma Limited, priority 2015, dated 2020)

Key:
[1] = biological target: T1, androgen receptor (AR-LBD) (Rattus norvegicus, UniProt P15207); test: Evaluation of androgen receptor affinity (PolarScreen Androgen Receptor Competitor Assay Kit, Red; fluorescence polarization); conditions: 22° C. for 5 hours, relative to binding rate of 1 μM DHT, read-out: AR affinity (pEC50) (converted)
T1 construct: 5 μL of 2×AR-LBD/Fluoromone AL Red Complex contained in the kit; purchased Invitrogen
T1 sequence (P15207 651-882 limits assumed): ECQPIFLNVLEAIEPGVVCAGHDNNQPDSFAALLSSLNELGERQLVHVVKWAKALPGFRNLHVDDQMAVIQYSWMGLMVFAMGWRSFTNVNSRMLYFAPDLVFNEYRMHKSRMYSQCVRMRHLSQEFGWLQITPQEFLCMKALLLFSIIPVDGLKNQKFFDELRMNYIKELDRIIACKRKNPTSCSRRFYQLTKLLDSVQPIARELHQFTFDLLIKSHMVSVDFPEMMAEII
Method in brief: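 Test compound and the 2× AR-LBD/Fluoromone AL Red complex were combined in duplicate wells. After reacting 5 h at 22° C, polarization was measured. pEC50 was derived by 4-parameter fitting, normalizing to binding obtained with 1 μM dihydrotestosterone.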

human androgen receptor = biological target: T2, human androgen receptor (Homo sapiens, UniProt P10275); test: Reporter assay of an androgen receptor responsive sequence (luciferase, transiently transfected HEK293 cells); format: cell-based; conditions: 24 hours incubation, relative to activity of 100 nM DHT, read-out: AR transcriptive activity (pEC50) (converted)
T2 construct: expressed in transfected cells; host or cells: HEK293
T2 sequence (P10275 1-920): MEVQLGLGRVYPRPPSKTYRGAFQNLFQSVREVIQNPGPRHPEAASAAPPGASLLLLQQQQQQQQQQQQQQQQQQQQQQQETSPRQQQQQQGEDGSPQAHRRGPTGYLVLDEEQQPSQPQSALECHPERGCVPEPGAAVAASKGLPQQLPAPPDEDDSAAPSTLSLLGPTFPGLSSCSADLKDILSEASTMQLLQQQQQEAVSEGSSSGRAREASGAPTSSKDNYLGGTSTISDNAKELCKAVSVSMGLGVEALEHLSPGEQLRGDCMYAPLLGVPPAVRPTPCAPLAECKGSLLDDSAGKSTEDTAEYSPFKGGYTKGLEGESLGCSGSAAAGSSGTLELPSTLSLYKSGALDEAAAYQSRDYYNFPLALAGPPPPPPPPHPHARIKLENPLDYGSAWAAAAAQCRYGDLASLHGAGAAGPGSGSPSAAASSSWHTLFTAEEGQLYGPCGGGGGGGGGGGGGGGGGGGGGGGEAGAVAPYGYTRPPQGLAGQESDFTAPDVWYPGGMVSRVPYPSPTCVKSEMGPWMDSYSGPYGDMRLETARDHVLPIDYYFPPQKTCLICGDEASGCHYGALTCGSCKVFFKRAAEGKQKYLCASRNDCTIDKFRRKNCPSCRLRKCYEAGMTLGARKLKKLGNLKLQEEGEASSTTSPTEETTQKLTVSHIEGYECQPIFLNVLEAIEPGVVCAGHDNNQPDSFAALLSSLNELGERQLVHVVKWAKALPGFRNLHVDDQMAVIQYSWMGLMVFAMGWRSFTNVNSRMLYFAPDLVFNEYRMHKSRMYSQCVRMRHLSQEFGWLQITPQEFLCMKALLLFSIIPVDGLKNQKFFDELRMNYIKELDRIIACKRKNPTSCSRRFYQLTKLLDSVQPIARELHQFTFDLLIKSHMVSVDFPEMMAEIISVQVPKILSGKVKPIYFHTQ
Method in brief: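 Agonism scored as pEC50, fitted by 4-parameter curve against the response to 100 nM DHT, from dual-luciferase readout after 24 h compound treatment. Cells were HEK293 co-transfected (3 h) with human AR expression vector, androgen-responsive firefly reporter and Renilla control, in charcoal-stripped serum.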

SMILES | EC50 [1] [nM] | EC50 (human androgen receptor) [nM]
Cc1sc(N(CCc2cccc(C(F)(F)F)c2)Cc2ccccc2)nc1C(=O)NS(C)(=O)=O [Compound 330, 2-[benzyl-[2-[3-(trifluoromethyl)phenyl]ethyl]amino]-5-methyl-N-methylsulfonyl-thiazole-4-carboxamide] | 251 | > 10000
Cc1sc(N(CCc2ccc(C(F)(F)F)cc2)Cc2ccccc2)nc1C(=O)NS(C)(=O)=O [Compound 333, 2-[benzyl-[2-[4-(trifluoromethyl)phenyl]ethyl]amino]-5-methyl-N-methylsulfonyl-thiazole-4-carboxamide] | 25.1 | 100
Cc1sc(N(Cc2ccccc2)c2ccc3ncsc3c2)nc1C(=O)NS(C)(=O)=O [Compound 335, 2-[1,3-benzothiazol-6-yl(benzyl)amino]-5-methyl-N-methylsulfonyl-thiazole-4-carboxamide] | 631 | 1580
Cc1sc(N(CCc2ccccc2F)Cc2ccccc2)nc1C(=O)NS(C)(=O)=O [Compound 339, 2-[benzyl-[2-(2-fluorophenyl)ethyl]amino]-5-methyl-N-methylsulfonyl-thiazole-4-carboxamide] | 39.8 | 2000
Cc1sc(N(CCc2ccc(F)cc2)Cc2ccccc2)nc1C(=O)NS(C)(=O)=O [Compound 340, 2-[benzyl-[2-(4-fluorophenyl)ethyl]amino]-5-methyl-N-methylsulfonyl-thiazole-4-carboxamide] | 100 | 251
Cc1sc(N(Cc2ccccc2)c2ccc(C(F)(F)F)cc2)nc1C(=O)NS(C)(=O)=O [Compound 341, 2-[N-benzyl-4-(trifluoromethyl)anilino]-5-methyl-N-methylsulfonyl-thiazole-4-carboxamide] | 63.1 | 1260
COc1ccc(CN(c2ccc(C#N)cc2)c2nc(C(=O)NS(C)(=O)=O)c(C)s2)cc1 [Compound 342, 2-[4-cyano-N-[(4-methoxyphenyl)methyl]anilino]-5-methyl-N-methylsulfonyl-thiazole-4-carboxamide] | 63.1 | 25.1
Cc1sc(N(Cc2cccc(OC(F)(F)F)c2)c2ccc(C#N)cc2)nc1C(=O)NS(C)(=O)=O [Compound 343, 2-[4-cyano-N-[[3-(trifluoromethoxy)phenyl]methyl]anilino]-5-methyl-N-methylsulfonyl-thiazole-4-carboxamide] | 31.6 | 100
Cc1sc(N(CC2CCCCC2)c2ccc(C#N)cc2)nc1C(=O)NS(C)(=O)=O [Compound 344, 2-[4-cyano-N-(cyclohexylmethyl)anilino]-5-methyl-N-methylsulfonyl-thiazole-4-carboxamide] | 39.8 | 794
Cc1sc(N(CC2CCN(C)CC2)c2ccc(C#N)cc2)nc1C(=O)NS(C)(=O)=O [Compound 351, 2-[4-cyano-N-[(1-methyl-4-piperidyl)methyl]anilino]-5-methyl-N-methylsulfonyl-thiazole-4-carboxamide] | > 2000 | > 10000
Cc1sc(N(CCCOCc2ccccc2)c2ccc(C#N)cc2)nc1C(=O)NS(C)(=O)=O [Compound 359, 2-[N-(3-benzyloxypropyl)-4-cyano-anilino]-5-methyl-N-methylsulfonyl-thiazole-4-carboxamide] | 126 | > 10000
Cc1sc(N(Cc2ccc3nonc3c2)c2ccc(C#N)cc2)nc1C(=O)NS(C)(=O)=O [Compound 361, 2-[N-(2,1,3-benzoxadiazol-5-ylmethyl)-4-cyano-anilino]-5-methyl-N-methylsulfonyl-thiazole-4-carboxamide] | 39.8 | 631

Other lines, results leading:

EC50 [1] [nM] | EC50 (human androgen receptor) [nM] | SMILES
63.1 | 251 | CCS(=O)(=O)NC(=O)c1nc(N(Cc2ccccc2)c2ccc(C#N)cc2)sc1C [Compound 362, 2-(N-benzyl-4-cyano-anilino)-N-ethylsulfonyl-5-methyl-thiazole-4-carboxamide]
63.1 | 1260 | Cc1sc(N(Cc2ccccc2)c2ccc(C#N)cc2)nc1C(=O)NS(=O)(=O)C1CC1 [Compound 363, 2-(N-benzyl-4-cyano-anilino)-N-cyclopropylsulfonyl-5-methyl-thiazole-4-carboxamide]
31.6 | > 10000 | Cc1sc(N(Cc2ccccc2)c2ccc(C#N)cc2)nc1C(=O)NS(=O)(=O)C(F)(F)F [Compound 364, 2-(N-benzyl-4-cyano-anilino)-5-methyl-N-(trifluoromethylsulfonyl)thiazole-4-carboxamide]
25.1 | 631 | Cc1sc(N(CC2CCCCCC2)c2ccc(C#N)cc2)nc1C(=O)NS(C)(=O)=O [Compound 365, 2-[4-cyano-N-(cycloheptylmethyl)anilino]-5-methyl-N-methylsulfonyl-thiazole-4-carboxamide]
39.8 | 50.1 | Cc1sc(N(CC2=CCCCC2)c2ccc(C#N)cc2)nc1C(=O)NS(C)(=O)=O [Compound 366, 2-[4-cyano-N-(cyclohexen-1-ylmethyl)anilino]-5-methyl-N-methylsulfonyl-thiazole-4-carboxamide]
158 | > 10000 | Cc1sc(N(CCOCc2ccccc2)c2ccc(C#N)cc2)nc1C(=O)NS(C)(=O)=O [Compound 367, 2-[N-(2-benzyloxyethyl)-4-cyano-anilino]-5-methyl-N-methylsulfonyl-thiazole-4-carboxamide]
100 | > 10000 | Cc1sc(N(CCCOc2ccccc2)c2ccc(C#N)cc2)nc1C(=O)NS(C)(=O)=O [Compound 368, 2-[4-cyano-N-(3-phenoxypropyl)anilino]-5-methyl-N-methylsulfonyl-thiazole-4-carboxamide]
79.4 | > 10000 | Cc1sc(N(CCCCOc2ccccc2)c2ccc(C#N)cc2)nc1C(=O)NS(C)(=O)=O [Compound 369, 2-[4-cyano-N-(4-phenoxybutyl)anilino]-5-methyl-N-methylsulfonyl-thiazole-4-carboxamide]
79.4 | 2510 | Cc1sc(N(CCOC2CCCCC2)c2ccc(C#N)cc2)nc1C(=O)NS(C)(=O)=O [Compound 370, 2-[4-cyano-N-[2-(cyclohexoxy)ethyl]anilino]-5-methyl-N-methylsulfonyl-thiazole-4-carboxamide]
200 | > 10000 | Cc1sc(N(Cc2ccccc2)c2ccc(C#N)cc2)nc1C(=O)NS(=O)(=O)CC(C)C [Compound 371, 2-(N-benzyl-4-cyano-anilino)-N-isobutylsulfonyl-5-methyl-thiazole-4-carboxamide]
31.6 | 1260 | Cc1sc(N(Cc2ccccc2)c2ccc(C#N)cc2)nc1C(=O)NS(=O)(=O)CC(F)(F)F [Compound 372, 2-(N-benzyl-4-cyano-anilino)-5-methyl-N-(2,2,2-trifluoroethylsulfonyl)thiazole-4-carboxamide]
39.8 | 501 | Cc1sc(N(Cc2ccccc2)c2ccc(C#N)cc2)nc1C(=O)NS(=O)(=O)Cc1ccccc1 [Compound 374, 2-(N-benzyl-4-cyano-anilino)-N-benzylsulfonyl-5-methyl-thiazole-4-carboxamide]
100 | 6310 | COc1ccccc1CCN(c1ccc(C#N)cc1)c1nc(C(=O)NS(C)(=O)=O)c(C)s1 [Compound 376, 2-[4-cyano-N-[2-(2-methoxyphenyl)ethyl]anilino]-5-methyl-N-methylsulfonyl-thiazole-4-carboxamide]
25.1 | 50.1 | Cc1sc(N(Cc2cccc3ccsc23)c2ccc(C#N)cc2)nc1C(=O)NS(C)(=O)=O [Compound 378, 2-[N-(benzothiophen-7-ylmethyl)-4-cyano-anilino]-5-methyl-N-methylsulfonyl-thiazole-4-carboxamide]
